Reference: patent publication US7084158B2, “Substituted propargylamines” (Bayer Cropscience S.A., priority 2001, dated 2006)

Key:
Assay type in all cases: in vivo
Set-up in all cases: key: compounds were considered to be active when, at a concentration of 500 ppm or less, they had an activity on the harmful organisms of 50% or more
Carpocapsa pomonella = assay: Example I: insect diet and L1 larvae sprayed, codling moth mortality; details: 500 ppm or less, after 8 days
Procedure: Ten L1 larvae of the codling moth (Carpocapsa pomonella) were placed into a Petri dish filled with insect diet. Insect diet and the larvae used were then sprayed with an aqueous solution of the formulated compound to be examined. The Petri dish was then closed with a lid. After 8 days of storage at about 23° C., the effect of the compound on the larvae was determined (mortality). The compounds of the following examples were active: 60, 70, 1002, 1005.

Plutella maculipennis = assay: Example K: sprayed white cabbage leaf, diamondback moth larvae mortality; details: 500 ppm or less, after 3 days
Procedure: A white cabbage leaf was sprayed with an aqueous solution of the formulated compound to be examined. After the spray coating had dried, the treated leaf was populated with larvae of the diamondback moth (Plutella maculipennis). After 3 days of storage at about 23° C., the effect of the compound on the larvae was determined (mortality). The compounds of the following examples were active: 60, 70, 1002, 1004, 1005, 1036, 197.

[1] = system: Leptinotarsa decemlineata; assay: Example L: potato leaves and larvae sprayed, Colorado beetle mortality; details: 500 ppm or less, after 4 days
Procedure: Potato leaves were populated with larvae of the Colorado beetle (Leptinotarsa decemlineata). Leaves and larvae were then sprayed with an aqueous solution of the formulated compound to be examined. After 4 days of storage at about 25° C., the effect of the compound on the larvae was determined (mortality). The compounds of the following examples were active: 60, 70, 1002, 1004, 1005, 1036, 1047, 197.

[2] = system: Leptinotarsa decemlineata; assay: Example AI: sprayed potato plant, repellent effect on Colorado beetle larvae; details: 500 ppm or less; sprayed plant with untreated plant in a cage; after 1 and 3 days
Text: A potato plant was sprayed with an aqueous solution of the formulated compound to be examined and, together with an untreated plant, placed in a cage. The cage was populated with 100 larvae of the Colorado beetle (Leptinotarsa decemlineata). […] The following examples were active: 1036, 70, 60.

Spodoptera exigua [3] = assay: Example X: dipped freeze-dried diet cube, sugar beet armyworm L2 larvae mortality; details: 500 ppm or less, after 4 days
Procedure: Insect diet (as freeze-dried cube) was dipped into an aqueous solution of the formulated compound to be examined and then placed into a Petri dish. 10 L2 larvae of the sugar beet armyworm (Spodoptera exigua) were then added. The Petri dish was then closed with a lid. After 4 days of storage at about 23° C., the mortality among the larvae was determined. The following examples were active: 1036, 60.

Spodoptera exigua [4] = assay: Example Z: cotton leaves with larvae sprayed, sugar beet armyworm mortality; details: 500 ppm or less; cotton leaves populated then sprayed; L2 larvae; after 4 days
Procedure: Cotton leaves were populated with 5 L2 larvae of the sugar beet armyworm (Spodoptera exigua) and then sprayed with an aqueous solution of the formulated compound to be examined. After 4 days of storage at about 23° C., the mortality among the larvae was determined. The following examples were active: 1036, 70, 60, 1047, 197.

[5] = system: Trialeurodes vaporariorum; assay: Example AD: bush beans sprayed, white fly larvicidal action; details: 500 ppm or less; bush beans sprayed after hatching; after 11 days
Procedure: For oviposition, bush beans (Phaseolus vulgaris) were populated for 48 hours with adults of the white fly (Trialeurodes vaporariorum). After the larvae had hatched, the plants were sprayed to run-off point with an aqueous solution of the formulated compound to be examined. After 11 days, the larvicidal action was determined. The following examples were active: 1036, 70, 60, 1040, 197.

CC1CCN(CC#Cc2cc(C(F)(F)F)cc(C(F)(F)F)n2)CC1 [Example 60]
active: effect on the larvae (mortality) (Carpocapsa pomonella) | effect on the larvae (mortality) (Plutella maculipennis) | effect on the larvae (mortality) [1] | repellent effect on the larvae [2] | mortality among the larvae (Spodoptera exigua [3]) | mortality among the larvae (Spodoptera exigua [4]) | larvicidal action [5]
